Earlier results, collected in US20240108697A1, “ANTIMICROBIAL COMPOSITIONS” (Matoke Holdings Limited, priority 2020, published 2024).

Legend:
[1] = at 20° C. and 1 atm
[2] = test system: Human Fibroblast Cell Migration; conditions: in the presence of 30 mM glucose

solubility [1]	Structure (SMILES)	mobilisation of fibroblasts in a cell culture system [2]
90 g/100 g water	O=C[C@H](O)[C@@H](O)[C@H](O)[C@H](O)CO [Glucose]	poor mobilisations of fibroblasts
about 375 g/100 g water	O=C(CO)[C@@H](O)[C@H](O)[C@H](O)CO [Fructose]	
